Data from US12721863B2, “Treatment for down syndrome-related accelerated aging” (The Texas A&M University System, priority 2021, dated 2026).

Tests used:
Nrf2 = Nrf2 Western blot in bEnd.3 cells; format: cell-based, mouse; conditions: lipoic acid 1 mM alone; FIG. 9
Description: Culture of bEnd.3 Cells for Nrf2 Study—Mouse brain endothelial (b.End3) cells are grown and maintained in DMEM supplemented with 10% fetal bovine serum and 1% penicillin streptomycin. Once cells reach 90% confluence, cells are split in a 1-to-5 ratio.
Treatment of bEnd.3 Cells for Nrf2 Study—b.End3 cells are seeded on 10-cm petri dishes. On day 4, half of the old media is discarded and replaced with fresh media.
Nrf2 Western blotting—Cell extraction is performed using Cell Lysis Buffer and the provided protocol (ThermoFisher #FNN0011). Proteins are quantified using Bradford assay (Thermofisher #1863028). Same amounts of proteins of each lysate (20 μg) are loaded on an SDS-PAGE gel under reducing conditions (unless stated otherwise). Membrane transfer is done overnight (about 18 hours) in cold room and blocked with 5% dry milk/TBST the next day. Subsequently, the membrane is incubated with primary antibodies overnight (about 18 hours) and with secondary antibodies for an hour in blocking solution. Signals are developed with ECL (ThermoFisher #A43840) and captured with ChemiDoc™ Imaging System.

AHI lymphocytes = assay: AP39 challenge of AHI lymphocytes; format: cell-based, human; conditions: AHI cells; 5 μM AP39; p<0.05; FIG. 10
Excerpt: (§1) Age-matched and sex-matched DS-donor and apparently healthy individual (AHI) lymphocytes (Coriell Institute, Camden, NJ) are used as a human model of DS.

DS lymphocytes = assay: AP39 challenge of DS lymphocytes; format: cell-based, human; conditions: DS cells; 5 μM AP39; p<0.05; FIG. 10
Excerpt: as §1

Row | SMILES | Nrf2 signal (Western blot) (Nrf2) | cell proliferation (AHI lymphocytes) | cell proliferation (DS lymphocytes) | viability versus untreated control (DS lymphocytes)
1 | O=C(O)CCCC[C@@H]1CCSS1 (racemic) [lipoic acid] | some small increases in signal | – | – | –
2 | O=C(CCCCCCCCC[P+](c1ccccc1)(c1ccccc1)c1ccccc1)Oc1ccc(-c2cc(=S)ss2)cc1.[Br-] [AP39] | – | reduced | reduced | significant reduction in viability
